Consider 1 compound from US20150374709A1, “TETRA-SUBSTITUTED NDGA DERIVATIVES VIA ETHER BONDS AND CARBAMATE BONDS AND THEIR SYNTHESIS AND PHARMACEUTICAL USE” (ERIMOS PHARMACEUTICALS LLC, priority 2006, published 2015).

The subject of assay [1] is COS-7 cells. In words: MTT cytotoxicity assay in COS-7 cells (run with SEAP). The assay is classed as cell-based, green monkey. The note with it: Chlorocebus sabaeus, COS-7 test cells of the SEAP assay.
Protocol: The MTT assay is a colorimetric method for determining the number of viable cells. Metabolically active cells turn the MIT reagent, (3-(4,5-dimethylthiazol-2-yl)-2,5-diphenyltetrazolium bromide, into purple-colored formazan crystals that are solubilized in dimethyl sulfoxide (DMSO). The MTT reagent is added to MTT (colorless) media. The media is added to the cells and they are incubated for 4 hours. DMSO is added to the cells and mixed. The colored solutions are then read at 540 nm and corrected at 630 nm. The IC50 is estimated by graphing the gathered data.
The cells are analyzed by the MTT assay to compare cytotoxicity to SEAP inhibition. The goal is for the drug to inhibit SEAP without being too toxic.
The MTT assay measures cellular-proliferation and is used to verify that the levels of SEAP activity are not solely due to cytotoxicity. These assays was used in screening for potential drug compound leads as antiviral agents, and particularly, anti-HIV candidates.
In assay [2] the test system is Leukemia cell lines. Description: NCI DTP human tumor cell line screen, leukemia panel. Format: cell-based. The following applies: Leukemia (6 cell lines). An excerpt: The United States National Cancer Institute (NCI) provides a developmental therapeutics program (DTP) (http://dtp.nci.nih.gov/branches/btb/ivelsp.html) to screen submitted substances in support of cancer drug discovery. The In Vitro Cell Line Screening Project (IVCLSP) is a dedicated service providing direct support to the DTP anticancer drug discovery program and is designed to screen up to 3,000 compounds per year for potential anticancer activity. The operation of this screen utilizes 60 different human tumor cell lines, representing leukemia, melanoma and cancers of the lung, colon, brain, ovary, breast, prostate, and kidney. The aim is to prioritize for farther evaluation, synthetic compounds or natural product samples showing selective growth inhibition or cell killing of particular tumor cell lines. This screen is unique in that the complexity of a 60 cell line dose response produced by a given compound results in a biological response pattern which can be utilized in pattern recognition algorithms (COMPARE program. See: http://dtp.nci.nih.gov/docs/compare/compare.html). Using these algorithms, it is possible to assign a putative mechanism of action to a test compound, or to determine that the response pattern is unique and not similar to that of any of the standard prototype compounds included in the NCI database. […]

Assay [3] has as its system HeLa (cervical adenocarcinoma). In words: MTS cell viability assay, HeLa. Format: cell-based. The following applies: Homo sapiens, HeLa, MTS assay; read-out: HeLa IC50.

Regarding `C[C@H](Cc1ccc(OCCCN2CCCCC2)c(OCCCN2CCCCC2)c1)[C@@H](C)Cc1ccc(OCCCN2CCCCC2)c(OCCCN2CCCCC2)c1` [Compound A, 1,4-bis{3,4-bis[3-(piperidin-1-yl)propoxy]phenyl}-2,3-dimethyl-(2R,3S)-butane], the IC50 in assay [1] was 700 to 900 nM; in assay [3], 2000 to 3000 nM. The “Mean Growth Percent at 10 μM” value in assay [2] was −81.93%.
